Data reported in patent publication US10082496B2, “Targeting emopamil binding protein (EBP) with small molecules that induce an abnormal feedback response by lowering endogenous cholesterol biosynthesis” (Board of Regents of the University of Texas System, priority 2014, dated 2018).

Legend:
[1] = S9 half-life; format: in vitro ADME; settings: S9 fraction; read-out: S9 T1/2
[2] = system: DLD-1; assay: In vitro APC inhibition assay (MTT), DLD-1; format: cell-based; settings: Homo sapiens, DLD-1, DLD-1 (truncated APC)
Procedure: (§1) The small molecule anti-cancer compounds were evaluated for the ability to inhibit the activity of APC in an in vitro assay.
(§2) Reagents required for the assay are: (3-[4,5-Dimethylthiazol-2-yl]-2,5-diphenyltetrazolium bromide; Thiazolyl blue; RPI corp., cat# M92050); RPMI-1640 or Medium of Choice (i.e. DMEM) without phenol red; 1M Hepes; 100 mM NaPyruvate; 1000× Gentamicin (50 mg/ml); 100× Penicillin/Streptomycin/Fungizone; 1×PBS; Triton X-100; 1N HCl and Isopropanol. To make the MTT solution (10×), MTT powder was dissolved into complete RPMI (or DMEM solution) to a final concentration of 5 mg/mL and was sterilized by filtration with a 0.2 μm filter. The MTT solubilization solution contained 10% Triton X-100, 0.1N and 80% isopropanol. MTT solution was diluted to 1× with complete medium at 12 mL per plate. The culture dishes (96 wells) were removed from the incubator and the media was discarded. […] The cells were removed from the incubator and the MTT solution was discarded.
(§3) Percent inhibition was determined relative to control reactions without inhibitor, and half maximal inhibitory concentration (IC50) values were determined using a standard four parameter fit to the inhibition data.

[3] = system: HCT-116; assay: In vitro APC inhibition assay (MTT), HCT-116; format: cell-based; settings: Homo sapiens, HCT-116, read-out: IC50 (nM) in HCT-116
Procedure: as §1
Reagents required for the assay are: (3-[4,5-Dimethylthiazol-2-yl]-2,5-diphenyltetrazolium bromide; Thiazolyl blue; RPI corp., cat# M92050); RPMI-1640 or Medium of Choice (i.e. DMEM) without phenol red; 1M Hepes; 100 mM NaPyruvate; 1000× Gentamicin (50 mg/ml); 100× Penicillin/Streptomycin/Fungizone; 1×PBS; Triton X-100; 1N HCl and Isopropanol. To make the MTT solution (10×), MTT powder was dissolved into complete RPMI (or DMEM solution) to a final concentration of 5 mg/mL and was sterilized by filtration with a 0.2 μm filter. The MTT solubilization solution contained 10% Triton X-100, 0.1N and 80% isopropanol. MTT solution was diluted to 1× with complete medium at 12 mL per plate. The culture dishes (96 wells) were removed from the incubator and the media was discarded. The plates were washed three times with 1×PBS. 100 μl of 1×MTT solution was added to each well and the plates were incubated in a tissue culture incubator for 2-4 hours, depending on the cell line. The cells were removed from the incubator and the MTT solution was discarded. 200 μl of 1×MTT solubilization solution was added to each well using a multi-channel pipetor and the cells were placed on an orbital shaker for 10 minutes. The results were read on a microtiter plate reader (absorbance=570 nm, reference=700 nm) and data was exported.
as §3

[4] = system: HT-29; assay: In vitro APC inhibition assay (MTT), HT-29; format: cell-based; settings: Homo sapiens, HT-29, HT-29 (truncated APC)
Procedure: as §1, §2, §3

Row | Compound | half-life [1] | IC50 [2] | IC50 [3] | IC50 [4]
1 | CC1CCN(C2CCN(S(=O)(=O)c3c(C(C)C)cc(C(C)C)cc3C(C)C)CC2)CC1 | 59 min | 0.7 nM |  | 
2 | CC1CCN(C2CCN(S(=O)(=O)c3cccc4c3OCCO4)CC2)CC1 | 22.6 min | 10 nM |  | 
3 | CC1CCN(C2CCN(Cc3ccc(OC(F)(F)F)cc3)CC2)CC1 |  | 19 nM |  | 
4 | CC1CCCN(C2CCN(S(=O)(=O)c3ccc(C(F)(F)F)cc3)CC2)C1 (stereo not drawn) |  | 29 nM |  | 
5 | CC1CCN(C2CCN(S(=O)(=O)c3ccc(OC(F)(F)F)c(Br)c3)CC2)CC1 |  | 29 nM |  | 
6 | CC1CCCN(C2CCN(S(=O)(=O)c3ccc(OC(F)(F)F)cc3)CC2)C1 (stereo not drawn) |  | 31 nM |  | 
7 | COc1ccc(S(=O)(=O)N2CCC(N3CCC(C)CC3)CC2)c(OC)c1 |  | 41 nM |  | 
8 | CC1CCN(C2CCN(S(=O)(=O)c3cccc(OC(F)(F)F)c3)CC2)CC1 |  | 56 nM |  | 
9 | Cc1cc(C)c(S(=O)(=O)N2CCC([N+]3(C)CCCC3)CC2)c(C)c1 |  | 69 nM |  | 
10 | CCCCC#Cc1cc(S(=O)(=O)N2CCC(N3CCC(C)CC3)CC2)ccc1OC(F)(F)F |  | 147 nM |  | 
11 | Cc1cc(C)c(S(=O)(=O)N2CCC(N3CCCC3)CC2)c(C)c1 |  | 172 nM |  | 
12 | CC1CCN(C2CCN(S(=O)(=O)c3ccc(OC(F)(F)F)c(C#CCCCCO)c3)CC2)CC1 |  | 205 nM |  | 
13 | CC1CCCN(C2CCN(S(=O)(=O)c3ccc(Oc4ccccc4)cc3)CC2)C1 (stereo not drawn) |  | 244 nM |  | 
14 | CC1CCN(C2CCN(S(=O)(=O)c3ccc(Oc4ccccc4)cc3)CC2)CC1 |  | 253 nM |  | 
15 | CC1CCCN(C2CCN(S(=O)(=O)c3ccc(F)cc3)CC2)C1 (stereo not drawn) |  | 255 nM |  | 
16 | CC1CCCN(C2CCN(S(=O)(=O)c3ccc([N+](=O)[O-])cc3)CC2)C1 (stereo not drawn) |  | 366 nM |  | 
17 | CC(C)c1cc(C(C)C)c(S(=O)(=O)N2CCC(N3CCCC3)CC2)c(C(C)C)c1 |  | 374 nM |  | 

Row | Compound | half-life [1] | IC50 [2] | IC50 [3] | IC50 [4]
18 | CC1CCN(C2CCN(S(=O)(=O)c3ccccc3OC(F)(F)F)CC2)CC1 |  | 421 nM |  | 
19 | CC1CCN(C2CCN(S(=O)(=O)c3cccc(C(C)(C)C)c3)CC2)CC1 |  | 463 nM |  | 
20 | O=S(=O)(c1ccc(OC(F)(F)F)cc1)N1CCC(N2CCOCC2)CC1 |  | 501 nM |  | 
21 | C[N+]1(C2CCN(S(=O)(=O)c3cccc4ccccc34)CC2)CCCC1 |  | 2300 nM |  | 
22 | O=S(=O)(c1cccc2ccccc12)N1CCC(N2CCCC2)CC1 |  | 3900 nM |  | 
23 | C[C@H]1CC[N@@+](C)(C2CCN(S(=O)(=O)c3ccccc3)CC2)CC1 |  | ~7960 nM |  | 
24 | C[C@H]1CC[N@+](C)(C2CCN(S(=O)(=O)c3ccccc3)CC2)CC1 |  | > 10000 nM |  | 
25 | COc1ccc(S(=O)(=O)N2CCC([N+]3(C)CCCC3)CC2)cc1 |  | > 10000 nM |  | 
26 | C#CCC1CCCCN1C1CCN(S(=O)(=O)c2ccccc2)CC1 (stereo not drawn) |  |  | > 10000 nM | 1100 nM
27 | C#CCOCCC1CCN(C2CCN(S(=O)(=O)c3ccccc3)CC2)CC1 |  |  | > 10000 nM | 35 nM
28 | C#CCOCCC1CCCCN1C1CCN(S(=O)(=O)c2ccccc2)CC1 (stereo not drawn) |  |  | > 10000 nM | 2300 nM
29 | C#CCC1CCN(C2CCN(S(=O)(=O)c3ccccc3)CC2)CC1 | 25.2 min | 18 nM | > 10000 nM | 4 nM
30 | C#CCOc1ccc(C(=O)c2ccccc2)cc1S(=O)(=O)N1CCC(N2CCC(C)CC2)CC1 |  | 504 nM | > 10000 nM | 185 nM
31 | C#CCOc1ccc(CN2CCC(N3CCC(C)CC3)CC2)cc1N=[N+]=[N-] |  | 921 nM | > 10000 nM | 437 nM
32 | C#CCOc1ccc(N=[N+]=[N-])cc1S(=O)(=O)N1CCC(N2CCC(C)CC2)CC1 |  | 15000 nM | > 10000 nM | 4500 nM
33 | C#CCC1CCN(C2CCN(S(=O)(=O)c3ccccc3N=[N+]=[N-])CC2)CC1 |  | 5300 nM |  | 
34 | C#CCC1CCN(C2CCN(S(=O)(=O)c3ccc(N=[N+]=[N-])cc3)CC2)CC1 |  | 235 nM |  | 
